Experimental data published in patent US12233129B2, “Methods and compositions for the treatment of cancer” (priority 2019, dated 2025).
“Also recorded” adds a separate entry of the source.

Tests used:
Type in all cases: cell-based, human
SW480 = experiment: Cell detachment assay and live cell imaging; conditions: mutant p53
Description: (§1) Based on the above results, we then hypothesized that VTD-induced UBXN2A leads to apoptosis and cell death mimicking the Tet-on induced-UBXN2A model (FIG. 15). As cell detachment and cell shrinking are ubiquitous aspects of apoptosis, we examined these features in four cancer cell lines: HCT116 (WT-p53), LoVo (WT-p53), SW-480 (mutant-p53), and U2OS (WT-p53), all in the presence of VTD (FIG. 17, S4).
(§2) The viability of cells was calculated as % of control.
(§3) FIG. 17: Induction of apoptosis and in vitro cytotoxicity by VTD in a human cancer cell line with different statuses of p53 and mot-2. (A-D) Cells were treated with VTD for 24, 48, and 72 hours. After incubation, dead cells were washed off, and the remaining attached cells were calculated by counting in five random fields using the Axiovert 200 M inverted microscope and AxioVision software (cell detachment assay). The % of cells attached was calculated as % of control cells. […] The data is shown as mean+SEM of three independent experiments (n=3, *p<0.05). (E-K) Cells were plated for 5 days, and the colonies of cells were treated with different concentration of VTD. The colonies of viable cells were stained with crystal violet dye and absorbance, as an index of measurement of colony forming units, was read at 562 nm (clonogenic survival assay). VTD induced a significant decrease in cell viability in a p53- and differentiation grade manner in HCT-116 poorly differentiated cells (E), HCT 116 p53+/−(F), HCT-116 p53−/− (G), LoVo well-differentiated cells (H), SW-480 (K), and two non-colon cancer cells: HepG2 (I) and U2OS (J). The data is shown as mean+SEM of three independent experiments (n=3, *p<0.05). (L) Determination of endogenous levels of mot-2, UBXN2A, HSC70, and p53 proteins in various cancer cell lines using WB. (M) HCT-116 cells were treated with VTD (10 and 30 μM) and cytoplasmic and nuclear fractions were subjected to WB. HSC70 and Orc-2 antibodies were used as cytoplasmic and nuclear markers, respectively.

LoVo = experiment: Cell detachment assay and live cell imaging; conditions: dose- and time-dependent
Description: as §1, §2, §3

HCT-116 = experiment: Cell detachment assay and live cell imaging; conditions: dose- and time-dependent
Description: as §1, §2, §3

U2OS = experiment: Cell detachment assay and live cell imaging; conditions: dose- and time-dependent
Description: as §1, §2, §3

UBXN2A = experiment: Western blot of UBXN2A protein in treated HCT-116 cells; conditions: VTD 20 and 40 μM, 24 hours
Description: Our in vivo results encouraged us to screen for compounds that can enhance expression of UBXN2A. Using the UBXN2A promoter upstream of a luciferase construct that was transiently transfected to HCT-116 cells, we performed a high-throughput drug screen with 1800 FDA approved drugs, synthetic compounds, and natural products. Forty-eight hours after transfection, cells were treated with compounds for 24 hours in triplicate (FIG. 16A). […] We looked at protein expression of UBXN2A as well as P47 (another member of the UBXD family) to confirm the selectivity of VH as a selective enhancer of UBXN2A protein in cells. […] We observed a different level of VH-dependent UBXN2A induction in different segments of the gastrointestinal system (esophagus to rectum; data not shown).
The alkaloid fraction of Veratrine is known to contain a mixture of two major alkaloid esters: Veratridine (VTD) and Cevadine. VTD, with a veratroyl group at the 3-OR1 position and a free hydroxyl group at the 15-O-R2 position can function as an antihypertensive plant-derived substance. […]
A cell-based screen was conducted in search of compounds that induce the expression of the UBXN2A gene. […] A glow luciferase activity assay was conducted in triplicate followed by semi-quantitative RT-PCR and WB analysis for UBXN2A, p47 (negative control), or GAPDH± Veratrine or its purified form VTD. […]

Question: Which “cell detachment (% of cells attached)” value (SW480; 24, 48 and 72 hours) does the source give for `COc1ccc(C(=O)O[C@H]2CC[C@@]3(C)[C@@H]4CC[C@H]5[C@]6(O)C[C@H](O)[C@@]7(O)[C@@H](CN8C[C@@H](C)CC[C@H]8[C@@]7(C)O)[C@]6(O)C[C@@]53O[C@]24O)cc1OC` [VTD, Veratridine] here?
Answer: no effect on cell detachment; also recorded: not with mutant p53

Question: What about the “cell shrinking and rounding (live cell imaging)” value (shortened to “cell shrinking and rounding”) (SW480) of the same compound?
Answer: remain unchanged

Question: And the “cell detachment (% of cells attached)” value (LoVo; 24, 48 and 72 hours)?
Answer: significantly increases cell detachment; also recorded: significantly decreases the % of cells attached

Question: What about the “cell shrinking and rounding” value (LoVo) of the same compound?
Answer: induces cell shrinking and rounding

Question: And the “cell detachment (% of cells attached)” value (HCT-116; 24, 48 and 72 hours)?
Answer: significantly increases cell detachment; also recorded: significantly decreases the % of cells attached

Question: What about the “cell shrinking and rounding” value (HCT-116) of the same compound?
Answer: induces cell shrinking and rounding

Question: And the “cell detachment (% of cells attached)” value (U2OS; 24, 48 and 72 hours)?
Answer: significantly increases cell detachment; also recorded: significantly decreases the % of cells attached

Question: What about the “cell shrinking and rounding” value (U2OS) of the same compound?
Answer: induces cell shrinking and rounding

Question: What about the “UBXN2A protein expression (WB)” value (UBXN2A) of the same compound?
Answer: induces UBXN2A expression in a dose-dependent manner; also recorded: increases UBXN2A protein levels in a dose-dependent manner
